Test results reported in patent US12527774B2, “Estrogen-related receptor alpha modulators” (LEAD PHARMA HOLDING B.V., priority 2019, dated 2026).

Biological target: ERRα ligand binding domain (ERRα-LBD) (Homo sapiens (Human), UniProt P11474)
Assay: ERRα AlphaScreen Assay
Format: biochemical
Details: disruption of binding of ERRα-LBD protein to biotin-PGC1α-3 co-activator peptide; for IC50: read-out: mean pIC50 (converted)
From the text: This assay was based on the knowledge that nuclear receptors interact with cofactors in a ligand dependent matter. The sites of interaction have been mapped to LXXLL motifs that are present in the co-activator sequences. Short peptide sequences that contain the LXXLL motif mimic the behavior of full length co-activators.
The ERRα AlphaScreen Assay described here relies on the interaction of the co-activator peptide with purified bacterial-expressed ERRα ligand binding domain (ERRα-LBD); upon ligand binding the ERRα protein can undergo a conformational change resulting in a loss of co-activator binding.
Compounds of the present invention were tested for their ability to disrupt binding of ERRα-LBD protein to co-activator peptide using AlphaScreen® Technology (Perkin Elmer). ERRα-LBD protein was expressed in E. coli as a 6×His Small Ubiquitin-like Modifier (SUMO) fusion. Bacterial expressed 6His-SUMO-ERRα-LBD protein was purified using affinity chromatography. All experiments were performed at room temperature in 384-well white non-binding plates (Greiner) using 50 mM Tris-HCl pH 7.5, 100 mM NaCl, 0,1% Pluronic F-127, 0.05% BSA and 5 mM TCEP as the buffer. Final DMSO concentration was 1% in the assay. Compounds were assayed in triplicate and: incubated with 0.81 nM ERRα-LBD protein and 10 μg/mL streptavidin donor beads and 10 μg/mL Ni-chelate acceptor beads for 1 hour at room temperature; followed by a 2-hour incubation with 15 nM biotin-PGC1α-3 peptide (QRRPCSELLKYLTTNDDPP) corresponding to amino acids 202 to 220.
The AlphaScreen signal was measured using an Envision Xcite plate reader (Perkin Elmer). Data was normalized, and curve fitting analysis was performed in GraphPad Prism 7 using a four-parameter dose-response fit.
As multiple IC50 values were annotated for the same compound-protein pair, a mean pIC50 for each compound was determined.

Sequence of ERRα ligand binding domain (ERRα-LBD) (P11474 193-421): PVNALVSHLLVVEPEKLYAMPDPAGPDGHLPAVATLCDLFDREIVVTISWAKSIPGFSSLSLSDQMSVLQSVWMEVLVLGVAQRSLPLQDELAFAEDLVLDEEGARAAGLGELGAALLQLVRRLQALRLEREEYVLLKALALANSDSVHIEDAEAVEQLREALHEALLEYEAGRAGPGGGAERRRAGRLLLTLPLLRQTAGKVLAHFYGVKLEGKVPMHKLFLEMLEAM

Row | Structure (SMILES) | IC50 [µM] | mean pIC50
1 | NC(=O)c1cc(C2CC(=O)Nc3n[nH]cc32)ccc1OCc1ccccc1C(F)(F)F (stereo not drawn) [Example 130, 5-{6-oxo-2H,4H,5H,6H, 7H-pyrazolo[3,4-b]pyridin-4-yl}-2-{[2-(trifluoromethyl)phenyl]methoxy}benzamide] | 0.1 to 1 | 
2 | O=C1CC(c2ccc(OCc3ccccc3C(F)(F)F)cc2F)c2c[nH]nc2N1 (stereo not drawn) [Example 66, 4-(2-fluoro-4-{[2-(trifluoromethyl)phenyl]methoxy}phenyl)-2H,4H,5H,6H, 7H-pyrazolo[3,4-b]pyridin-6-one] | 0.1 to 1 | 
3 | O=C1CC(c2ccc(OCc3ccccc3Br)cc2)c2c[nH]nc2N1 (stereo not drawn) [Example 58, 4-{4-[(2-bromophenyl)methoxy]phenyl}-2H,4H,5H,6H,7H-pyrazolo[3,4-b]pyridin-6-one] | 0.1 to 1 | 
4 | COc1cc(C2CC(=O)Nc3n[nH]cc32)ccc1COc1ccc(C(F)(F)F)cc1C(F)F (single isomer, unassigned; (-)) [Example 216, (−)-4-(4-{[2-(difluoromethyl)-4-(trifluoromethyl)phenoxy]methyl}-3-methoxyphenyl)-2H,4H,5H,6H,7H-pyrazolo[3,4-b]pyridin-6-one] | 0.01 to 0.1 | 
5 | COc1cc(C2CC(=O)Nc3n[nH]cc32)ccc1COc1ccc(C)cc1C (stereo not drawn) [Example 111, 4-{4-[(2,4-dimethylphenoxy)methyl]-3-methoxyphenyl}-2H,4H,5H,6H,7H-pyrazolo[3,4-b]pyridin-6-one] | 0.01 to 0.1 | 
6 | O=C1CC(c2ccc(OCc3ccccc3C(F)(F)F)c(OC(F)(F)F)c2)c2c[nH]nc2N1 (stereo not drawn) [Example 69, 4-[3-(trifluoromethoxy)-4-{[2-(trifluoromethyl)phenyl]methoxy}phenyl]-2H,4H,5H, 6H, 7H-pyrazolo[3,4-b]pyridin-6-one] | 0.01 to 0.1 | 
7 | O=C1CC(c2ccc(OCc3ccccc3C(F)(F)F)c(C(=O)OCCO)c2)c2c[nH]nc2N1 (stereo not drawn) [Example 132, 2-hydroxyethyl 5-{6-oxo-2H,4H,5H,6H, 7H-pyrazolo[3,4-b]pyridin-4-yl}-2-{[2-(trifluoromethyl)phenyl]methoxy}benzoate] | 0.1 to 1 | 
8 | COc1cc(C2CC(=O)Nc3c[nH]nc32)ccc1OCc1ccccc1C(F)(F)F (stereo not drawn) [Example 87, 7-(3-methoxy-4-{[2-(trifluoromethyl)phenyl]methoxy}phenyl)-2H,4H,5H,6H, 7H-pyrazolo[4,3-b]pyridin-5-one] | 0.01 to 0.1 | 
9 | COc1cc(C2CC(=O)Nc3n[nH]cc32)ccc1COc1ccc(Cl)cc1C(F)(F)F (single isomer, unassigned; (+)) [Example 193, (+)-4-(4-{[4-chloro-2-(trifluoromethyl)phenoxy]methyl}-3-methoxyphenyl)-2H,4H,5H,6H,7H-pyrazolo[3,4-b]pyridin-6-one] | 0.01 to 0.1 | 
10 | COc1cc(C2CC(=O)Nc3n[nH]cc32)ccc1OCc1ccc(S(C)(=O)=O)cc1C(F)(F)F (stereo not drawn) [Example 37, 4-(4-{[4-methanesulfonyl-2-(trifluoromethyl)phenyl]methoxy}-3-methoxyphenyl)-2H,4H,5H,6H,7H-pyrazolo[3,4-b]pyridin-6-one] | 0.1 to 1 | 
11 | COc1cc(OCc2ccccc2C(F)(F)F)ccc1C1CC(=O)Nc2n[nH]cc21 (stereo not drawn) [Example 64, 4-(2-methoxy-4-{[2-(trifluoromethyl)phenyl]methoxy}phenyl)-2H,4H,5H,6H,7H-pyrazolo[3,4-b]pyridin-6-one] | 0.01 to 0.1 | 
12 | COc1cc(C2CC(=N)Nc3n[nH]cc32)ccc1OCc1ccccc1C(F)(F)F (stereo not drawn) [Example 167, 4-(3-methoxy-4-{[2-(trifluoromethyl)phenyl]methoxy}phenyl)-2H,4H,5H,6H, 7H-pyrazolo[3,4-b]pyridin-6-imine] | 0.1 to 1 | 
13 | CNc1ccc(COc2ccc(C3CC(=O)Nc4n[nH]cc43)cc2OC)c(C(F)(F)F)c1 (stereo not drawn) [Example 141, 4-(3-methoxy-4-{[4-(methylamino)-2-(trifluoromethyl)phenyl]methoxy}phenyl)-2H,4H,5H,6H,7H-pyrazolo[3,4-b]pyridin-6-one] |  | ≥ 8
14 | COc1cc(C2CC(=O)Nc3n[nH]cc32)ccc1OCc1cc(Cl)ccc1Cl (stereo not drawn) [Example 29, 4-{4-[(2,5-dichlorophenyl)methoxy]-3-methoxyphenyl}-2H,4H,5H,6H, 7H-pyrazolo[3,4-b]pyridin-6-one] | 0.1 to 1 | 
15 | COc1cc(C2CC(=O)Nc3n[nH]cc32)ccc1OCc1cccc2c1OC(C)(C)C2 (stereo not drawn) [Example 46, 4-{4-[(2,2-dimethyl-2,3-dihydro-1-benzofuran-7-yl)methoxy]-3-methoxyphenyl}-2H,4H,5H,6H, 7H-pyrazolo[3,4-b]pyridin-6-one] | 0.1 to 1 | 
16 | COc1cc(C2CC(=O)Nc3n[nH]cc32)ccc1OCc1ccc(N)cc1C(F)(F)F (single isomer, unassigned; (+)) [Example 203, (+)-4-(4-{[4-amino-2-(trifluoromethyl)phenyl]methoxy}-3-methoxyphenyl)-2H,4H,5H,6H,7H-pyrazolo[3,4-b]pyridin-6-one] | 0.01 to 0.1 | 
17 | COc1cc(C2CC(=O)Nc3n[nH]cc32)ccc1COc1ccc(C(F)(F)F)cc1C(F)F (stereo not drawn) [Example 117, 4-(4-{[2-(difluoromethyl)-4-(trifluoromethyl)phenoxy]methyl}-3-methoxyphenyl)-2H,4H,5H,6H, 7H-pyrazolo[3,4-b]pyridin-6-one] | 0.01 to 0.1 | 
18 | COc1ccc([N+](=O)[O-])cc1COc1ccc(-c2cc(=O)[nH]c3n[nH]cc23)cc1OC [Example 182, 4-{3-methoxy-4-[(2-methoxy-5-nitrophenyl)methoxy]phenyl}-2H,6H,7H-pyrazolo[3,4-b]pyridin-6-one] | 0.01 to 0.1 | 
19 | COc1cc(C2CC(=O)Nc3n[nH]cc32)ccc1OCc1ccc(C(=O)O)cc1C(F)(F)F (stereo not drawn) [Example 120, 4-(2-methoxy-4-{6-oxo-2H,4H,5H,6H, 7H-pyrazolo[3,4-b]pyridin-4-yl}phenoxymethyl)-3-(trifluoromethyl)benzoic acid] | 0.1 to 1 | 
20 | CCOC(=O)c1ccccc1COc1ccc(C2CC(=O)Nc3n[nH]cc32)cc1OC (stereo not drawn) [Example 48, ethyl 2-[(2-methoxy-4-{6-oxo-2H,4H,5H, 6H,7H-pyrazolo[3,4-b]pyridin-4-yl}phenoxy)methyl]benzoate] | 0.1 to 1 | 
21 | COCCCOc1cc(C2CC(=O)Nc3n[nH]cc32)ccc1OCc1ccccc1C(F)(F)F (stereo not drawn) [Example 163, 4-[3-(3-methoxypropoxy)-4-{[2-(trifluoromethyl)phenyl]methoxy}phenyl]-2H,4H,5H,6H,7H-pyrazolo[3,4-b]pyridin-6-one] | 0.01 to 0.1 | 
22 | COc1cc(C2CC(=O)Nc3n[nH]cc32)ccc1OCc1cc(C(F)(F)F)ccc1C(F)(F)F (stereo not drawn) [Example 14, 4-(4-{[2,5-bis(trifluoromethyl)phenyl]methoxy}-3-methoxyphenyl)-2H,4H,5H,6H, 7H-pyrazolo[3,4-b]pyridin-6-one] | 0.01 to 0.1 | 
23 | COc1cc(C2CC(=O)Nc3ncsc32)ccc1OCc1ccccc1C(F)(F)F (stereo not drawn) [Example 88, 7-(3-methoxy-4-{[2-(trifluoromethyl)phenyl]methoxy}phenyl)-4H,5H,6H,7H-[1,3]thiazolo[4,5-b]pyridin-5-one] | 0.1 to 1 | 
24 | Cc1cc(C2CC(=O)Nc3n[nH]cc32)ccc1OCc1ccccc1C(F)(F)F (stereo not drawn) [Example 73, 4-(3-methyl-4-{[2-(trifluoromethyl)phenyl]methoxy}phenyl)-2H,4H,5H,6H,7H-pyrazolo[3,4-b]pyridin-6-one] | 0.01 to 0.1 | 
